TGI and GI50 data for 29 molecules are collected here from PubChem BioAssay (NCI).

SMILES strings stand for the structures.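 Method: 48-hour compound exposure of cells in 96-well plates, five concentrations, linear interpolation of endpoints. The concentration for 50% growth inhibition is given as GI50. TGI denotes the concentration required for complete inhibition of growth.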 Bounds are passed on as bounds.

Common to all, as to test: DTP human tumour cell line panel, 48 h
In assay [1] the test system is SK-MEL-28 melanoma.
Assay [2] has as its system CAKI-1 renal.
In assay [3] the test system is TK-10 renal.
The test system of assay [4] is SF-295 CNS.
Assay [5] has as its system SF-539 CNS.
Assay [6] relates to K-562 leukemia.
Assay [7] has as its system CCRF-CEM leukemia.
The subject of assay [8] is HS 578T breast.
Assay [9] deals with MCF7 breast.
Assay [10] relates to MDA-MB-231 breast.

A word on the TGI: it is the concentration at which net growth stops. The low end stands for more potent growth arrest, the high end for less potent growth arrest. As to `CCCCCCCCCC1CC(=O)OC2=C1C(=O)CCC2` (stereo not given), the TGI in [1], in assay [2], in assay [3], in assay [4], in assay [5] and in assay [6] was above 100 µM each time. In addition, in assay [7], the TGI is above 100 µM.
As a reminder, the GI50 is the concentration at which growth is held to half of that of the control. As for `CCCCCCCCN(CCCCCCCC)CC(O)c1cc(-c2ccccc2)nc2ccc(OC)cc12` (stereo not given), the GI50 in assay [1] was 62.3 µM; in assay [3] it was above 100 µM; in [8] it was above 100 µM; in assay [9] it was 38.9 µM; in [4], above 100 µM; in [5], 22.3 µM. Also, the GI50 in assay [10] is 11.1 µM; in [7] it was 26.1 µM. The TGI is above 100 µM in assay [1]; above 100 µM in assay [3]; above 100 µM in assay [8]; above 100 µM in assay [9]; above 100 µM in assay [4]; 64.8 µM in assay [5]. Further, the TGI in assay [10] and in [7] was above 100 µM each time.
With `COc1ccc(C(=O)/C=C/c2ccc(OCc3cccc(C(F)(F)F)c3)c(OC)c2)cc1OC`, the GI50 in assay [1] is 262 µM; in [3], 397 µM; in assay [8] it was 92.4 µM; in [9] it was 27.4 µM; in [4], 70.3 µM; in assay [5] it was 65.3 µM. Besides, the GI50 is 51.1 µM in [10] and 38.8 µM in assay [7]. In addition, the TGI in assay [1], in assay [3], in [8], in assay [9], in assay [4] and in assay [5] was above 1000 µM each time. Further, the TGI in assay [10] and in assay [7] was above 1000 µM in each case.
As to `COC(=O)C1=C(C)NC(C)=C(C(=O)OC)C1c1cccc(/[N+]([O-])=C/c2ccccc2)c1`, the TGI in assay [1] was 31.6 µM; in [2], 32.3 µM; in assay [3], above 100 µM; in assay [8], above 100 µM; in assay [9], 34.3 µM; in [4], above 100 µM. Further, the TGI is above 100 µM in assay [5], 32 µM in [10] and 44.8 µM in [7].
For the molecule `O=C(NC1CCC[C@H]1OC(=O)c1ccccc1)c1ccccc1` (stereo not given in full), the TGI in assay [1], in assay [2], in assay [3], in assay [4], in assay [5] and in [6] was above 100 µM each time. The molecule further returned a TGI in assay [7] above 100 µM.
As for `CC1(C)CC(=O)C(CC2C(=O)CCCC2=O)C(=O)C1`, the total growth inhibition concentration (TGI) in [1], in [2], in [3], in [4], in assay [5] and in [6] was above 100 µM in each case. The molecule further registered a TGI in assay [7] above 100 µM.
Consider `NC(=O)NNC/C(Cl)=C(\Cl)C(=O)O`, for which the TGI in assay [1], in [2], in [3], in [4], in assay [5] and in assay [6] was above 100 µM in each case. This molecule also returned a TGI in assay [7] above 100 µM.
In the case of `COc1ccc(C(C2=C(O)CC(C)OC2=O)C2=C(O)CC(C)OC2=O)cc1` (stereo not given), the total growth inhibition concentration (TGI) in assay [1], in assay [2], in [4], in assay [5], in [6] and in assay [7] was above 100 µM in each case.
In the case of `CCC[CH2][Sn]1([CH2]CCC)[O]C(=O)c2cccc([N+](=O)[O-])c2C(=O)[O]1`, the GI50 in [1] is 0.465 µM; in [2], 0.332 µM; in assay [3], 0.335 µM; in assay [8], 0.907 µM; in assay [9], 0.244 µM; in assay [4], 1.55 µM. The GI50 in [5] is 0.497 µM; in [10], 0.271 µM; in [7] it was 0.0617 µM. For the same molecule, the TGI in [1] came to 1.43 µM; in assay [2], 1.39 µM; in assay [3], 0.805 µM; in assay [8] it was 3.73 µM; in [9], 1.13 µM; in assay [4] it was 2.95 µM. For the same molecule, the TGI in assay [5] came to 1.73 µM; in assay [10] it was 1.04 µM; in assay [7], 0.683 µM.
With `CC1C(c2ccccc2)N(C)C(c2ccccc2)C(C)C1(O)c1ccccc1` (stereo not given), the TGI in [1], in assay [2], in [3], in assay [4], in assay [5] and in [6] was above 100 µM in each case. The same molecule came in with a TGI in [7] above 100 µM.
Regarding `Cc1cc(-c2ccccc2)nc(Nc2cc3ccccc3[nH]2)n1`, the TGI in assay [1], in assay [2], in [3], in [4], in [5] and in [6] was above 100 µM throughout. Moreover, the concentration for total growth inhibition (TGI) in [7] is above 100 µM.
As for `CCO/C=C\C12CCCC1NC(c1ccccc1)(c1ccccc1)O2` (stereo not given), the TGI in assay [1] was above 100 µM; in assay [2], 65.6 µM; in assay [3], above 100 µM; in assay [4] it was above 100 µM; in assay [5] it was 66 µM; in assay [6] it was 56.7 µM. In [7], this molecule had a TGI of 51 µM.
As for `COc1cc(/C=C2\[C@@H]3NC(Cc4c(OC)c(C)c(OC)c(OC)c43)C(=O)N2Cc2ccccc2)c(OC)c(C)c1OC`, the TGI in assay [1] is above 100 µM; in assay [2], 89 µM; in assay [3] it was above 100 µM; in [4], above 100 µM; in assay [5], above 100 µM; in assay [6], above 100 µM. The molecule also had a TGI in [7] above 100 µM.
With `CCN1CCN(c2ccc(NC(=O)Nc3nc4ccc(-c5ccccc5OC)cc4s3)cc2)CC1`, the GI50 in [1] was 1.76 µM; in [3], 2.12 µM; in [8], 1.95 µM; in assay [9], 1.31 µM; in assay [4], 1.68 µM; in assay [5] it was 1.6 µM. In addition, the values for the GI50 in assay [10] and in assay [7] were 1.72 µM and 1.81 µM, respectively. Moreover, the TGI in assay [1] was 3.26 µM; in assay [3] it was 3.6 µM; in assay [8], 4.45 µM; in [9], 2.86 µM; in [4] it was 3.09 µM; in assay [5], 3.03 µM. The TGI in [10] stood at 3.28 µM; in [7] it was 4.09 µM.
For `CCC(O)CCCCCCCCCCCCCCC(=O)O` (stereo not given), the TGI in [1], in [2], in assay [3], in assay [4], in assay [5] and in [6] was above 100 µM each time. In addition, the TGI in [7] is above 100 µM.
In the case of `C=CCC1(CN(C)C)CC/C(=C\c2ccc3c(c2)OCO3)C1=O` (stereo not given), the TGI in [1], in assay [2], in assay [3], in assay [4], in assay [5] and in assay [6] was above 100 µM throughout. The same molecule gave a TGI in [7] of 81.4 µM.
As to `CCCCCCCCCCCCCCNCC(OC)OC`, the TGI in assay [1] came to 30.4 µM; in assay [3] it was 32.9 µM; in assay [4], 34.1 µM; in assay [5], 30.9 µM; in assay [7] it was 36.4 µM.
In the case of `CC1(c2ccc(F)cc2)C2C(=O)NC(=O)C1C(=O)NC2=O` (stereo not given), the TGI in [1], in assay [2], in [3], in [4], in [5] and in assay [6] was above 100 µM each time. This molecule showed a TGI in assay [7] above 100 µM.
As for `OC1OCC(COc2cc(Cl)c(Cl)cc2Cl)OC1O` (stereo not given), the TGI in assay [1], in [2], in assay [3], in [4], in assay [5] and in assay [6] was above 100 µM each time. Further, the TGI in assay [7] amounted to 89.6 µM.
As for `C/C(=N\N=C(N)N)C(CN1CCOCC1)C(c1ccccc1)c1c(O)c2ccccc2oc1=O` (stereo not given), the TGI in assay [1], in [2], in [3], in [4], in assay [5] and in [6] was above 100 µM each time. Besides, the TGI in assay [7] was above 100 µM.
On to `O=C(Nc1ccc(Br)cc1)C(=O)C(C(=O)c1ccc(Cl)c(Cl)c1)C1OC(=O)c2ccccc21` (stereo not given), for which the TGI is 29.2 µM in [1]; 51.3 µM in assay [2]; 51.6 µM in assay [3]; 65.3 µM in [4]; above 100 µM in assay [6]; above 100 µM in assay [7].
Consider `Cc1cc(OCc2ccc(C(F)(F)F)cc2)c2c(c1)C(=O)C=C(NCCN1CCCC1)C2=O`, for which the GI50 in assay [1] was 1.69 µM; in assay [2], 1.79 µM; in [3], 6.85 µM; in [8], 2.02 µM; in [9], 1.67 µM; in assay [4], 1.88 µM. For the same molecule, the GI50 in assay [5] was 1.68 µM; in assay [6], 2.41 µM; in assay [7], 2.48 µM. Besides, the TGI is 3.36 µM in assay [1]; 4.83 µM in assay [2]; 22.2 µM in [3]; 5.23 µM in assay [8]; 3.56 µM in assay [9]; 4 µM in assay [4]. In addition, the TGI in assay [5] stood at 3.24 µM; in [6], 6.18 µM; in assay [7], 7.12 µM.
With `C=CC1=C(C)C(/C=c2\[nH]/c(=C/c3[nH]c(CC4NC(=O)C(C)/C4=C\C)c(C)c3CCC(=O)O)c(CC(=O)O)c2C)=NC1=O` (stereo not given), the TGI in [1], in assay [2], in assay [3], in [4], in [5] and in assay [6] was above 100 µM in each case. In addition, the TGI in assay [7] is above 100 µM.
Consider `O=C(CC12C3C4C1C1C2C3C41CC(=O)NO)NO` (stereo not given), for which the concentration for total growth inhibition (TGI) in [1] was above 100 µM; in [2], above 100 µM; in assay [3], above 100 µM; in assay [4] it was above 100 µM; in assay [5], above 100 µM; in [6], 87.1 µM. This molecule also returned a concentration for total growth inhibition (TGI) in assay [7] of 80.1 µM.
On to `O=C1CCC2(O)c3ccccc3C2Cc2ccccc21` (stereo not given), for which the TGI in assay [1], in [3], in assay [4], in assay [5], in assay [6] and in assay [7] was above 100 µM throughout.
Consider `CSc1ccc(N2C(=O)C3c4[nH]c5ccccc5c4C4CCC(C(C)(C)C)CC4C3C2=O)cc1` (stereo not given), for which the TGI came to 35.1 µM in assay [1]; 42.9 µM in [2]; 40.5 µM in assay [3]; 33.4 µM in assay [4]; 43.1 µM in [5]; 34.5 µM in assay [6]. In [7], this molecule registered a TGI of 23.5 µM.
As for `O=[N+]([O-])c1c(O)c2nonc2c2nn(-c3ccccc3)nc12`, the TGI in [1], in [2], in [3], in assay [8], in assay [9] and in assay [4] was above 100 µM each time. In addition, the TGI in assay [5], in [6] and in [7] was above 100 µM throughout.
Take `Cc1ccc(/C=C2\CCCCC2=O)cc1`: the TGI in [1] was above 100 µM; in [2], above 100 µM; in [3], above 100 µM; in assay [4], above 100 µM; in assay [5], above 100 µM; in assay [6], 77.4 µM. Further, the TGI in assay [7] came out at 88.8 µM.
Turning to `CN1C(=O)N(C)C2C1NC(=S)N2/N=C/C=C/c1ccccc1[N+](=O)[O-]` (stereo not given), the GI50 is 3.7 µM in assay [1]; 1.46 µM in assay [2]; 0.646 µM in [8]; 0.409 µM in assay [9]; 0.625 µM in [4]; 0.537 µM in assay [5]. Also, the GI50 in assay [10] is 5.02 µM; in assay [7], 0.822 µM. Also, the TGI is above 100 µM in assay [1]; above 100 µM in [2]; above 100 µM in assay [8]; above 100 µM in [9]; above 100 µM in [4]; 8.44 µM in [5]. In addition, the TGI in [10] and in assay [7] was above 100 µM throughout.
